The test deals with T1, HpxJ (Klebsiella michiganensis, UniProt B5B0L4).
T1 sequence (B5B0L4 1-413): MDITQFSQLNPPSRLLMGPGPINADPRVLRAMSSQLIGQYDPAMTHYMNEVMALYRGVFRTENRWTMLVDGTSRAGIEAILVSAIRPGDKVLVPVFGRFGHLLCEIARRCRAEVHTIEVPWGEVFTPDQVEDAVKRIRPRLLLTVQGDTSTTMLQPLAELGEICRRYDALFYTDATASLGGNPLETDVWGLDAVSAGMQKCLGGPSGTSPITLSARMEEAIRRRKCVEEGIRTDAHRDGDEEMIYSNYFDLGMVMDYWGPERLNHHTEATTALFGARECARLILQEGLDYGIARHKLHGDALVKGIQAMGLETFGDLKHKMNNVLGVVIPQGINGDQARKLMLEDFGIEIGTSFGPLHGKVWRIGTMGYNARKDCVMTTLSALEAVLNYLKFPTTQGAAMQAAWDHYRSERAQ
Briefly: pre-steady-state PLP to PMP conversion. The settings on record: amino donor; glyoxylate as acceptor in HPLC assay. The format is biochemical.

On to `N[C@@H](CC(=O)O)C(=O)O` [aspartate], for which the “rate of first half reaction” value is given as “an order of magnitude faster than the next fastest substrate, aspartate”.

The values above are taken from PMC2912414 (Biochemistry, 2010).
